From US20250129123A1, “BIOMIMETIC PEPTIDES AND THEIR USE IN BONE REGENERATION” (SILK BIOMATERIALS S.R.L., priority 2021, published 2025)
Ends that are not written are not given here.

Assays:
[1] = test system: human mesenchymal stem cells (MSCs); assay: Mineralization test (von Kossa staining) of fibroin foams incubated with human mesenchymal stem cells; format: cell-based; details: presence of MSC (+MSC), complete medium, 7 days, decellularized foams
Description: (§1) Human mesenchymal stem cells (MSCs) were purchased from Lonza and cultured in Dulbecco's Modified Eagle's Medium (DMEM), supplemented with 10% MSC Stimulatory Supplement, 100 U/mL penicillin-streptomycin and non-essential amino acids at 37° C. in a fully humidified atmosphere at 5% CO2. The fibroin foams were placed in a 96-well plate, immersed in 70% ethanol for 30 minutes, washed in phosphate buffered saline (PBS) three times, immersed in 100 U/mL penicillin-streptomycin overnight and washed three times in PBS. MSC (10^4/50 μL) were seeded by pipetting onto different points of the foam to improve the distribution of the cells within the foam and allowed to adhere for 30 minutes. Subsequently, 150 μL of complete medium were added to each well. As a negative control, the fibroin foams were kept in the complete cell-free medium. The medium was changed every two days.
(§2) The foams were washed twice with PBS (not containing magnesium/calcium ions) before cell lysis and protein extraction. Cell lysis was performed using the HEPES buffer (50 mM HEPES, pH 7.4, 150 mM NaCl, 10% (v/v) glycerol, 1% (v/v) Triton X-100, 1.5 mM MgCl2, 1 mM EGTA) containing 100 mM NaF, 1 mM NaVO4, 1 μg/mL leupeptin, and 1 μg/mL aprotinin. After 30 minutes on ice, the extracts were centrifuged for 10 minutes at 13,000 g as cell lysate and stored at −20° C. The remaining deposited matrix was washed twice with PBS (not containing magnesium/calcium ions). To fix the matrix on the fibroin foams […] was added in ultrapure water at room temperature for 10 minutes and then two washes with ultrapure water were performed. […]
(§3) The human mesenchymal stem cells (MSCs) were cultured for 7 days in the fibroin foams functionalized with the biomimetic peptides, using a non-functionalized fibroin foam as a reference. […] The extent of calcium deposit was studied by means of von Kossa staining and quantified by image analysis with ImageJ software. […] The threshold was adjusted manually, and the percentage area covered by the signal above the threshold was measured.

[2] = Mineralization test (von Kossa staining) of fibroin foams in complete medium in the absence of cells; details: absence of MSC (NO MSC), 7 days
Description: as §1, §2, §3

[3] = SEM/EDX chemical characterization of fibroin foams incubated in SBF; details: fibroin foam functionalized with peptide, 14 days, aggregates "Object 10437"
Description: […]
The fibroin foam samples were analysed in SEM/EDX in order to morphologically and compositionally identify the mineral formations constituted by calcium and phosphate salts.

| Sequence | amount of deposited calcium (percentage area covered by von Kossa staining) versus non-functionalized foam [1] | amount of deposited calcium (percentage area covered by von Kossa staining) versus non-functionalized foam [2] | chemical composition of the crystalline aggregates (SEM/EDX) [3] |
| --- | --- | --- | --- |
| GPYVAHGGYSGYEY | always higher | always higher | – |
| SGYEYAWSSESDF | always higher | always higher | – |
| VNGGYSGYEYAW | always higher | always higher | intense signals of calcium (Ca) and phosphorus (P) |
